SMILES strings stand for the structures. Calls of active or inactive are those of the source. The calls are words filed in the database; no cut-off is given here.

From ChEMBL document CHEMBL3739421, “Discovery of oxybisbenzoylamides as a new class of antimalarial agents” (Medchemcomm, 2015) come the findings set out here.

Series [1] has as its system Plasmodium falciparum. Put plainly: Antimalarial activity against Chloroquine-sensitive Plasmodium falciparum D10 assessed as parasite growth inhibition after 72 hrs by lactate dehydrogenase assay. Format: functional, organism-based. To be noted: D10, 72 h.
Series [2] relates to Plasmodium falciparum. Put plainly: Antimalarial activity against Chloroquine-resistant Plasmodium falciparum W2 assessed as parasite growth inhibition after 72 hrs by lactate dehydrogenase assay. Format: functional, organism-based. To be noted: W2, 72 h.
Series [3] can be described thus: Cytotoxicity against human fibroblasts assessed as growth inhibition after 72 hrs by MTT assay. Format: cell-based. To be noted: Fibroblast.
Series [4] is described as follows: Therapeutic index, ratio of IC50 for human fibroblasts to IC50 for Chloroquine-sensitive Plasmodium falciparum D10. To be noted: read-out: Ratio IC50.
A short description of series [5]: Therapeutic index, ratio of IC50 for human fibroblasts to IC50 for Chloroquine-resistant Plasmodium falciparum W2. To be noted: read-out: Ratio IC50.
A short description of series [6]: Inhibition of beta-haematin formation after 18 hrs by spectrophotometric analysis relative to haematin. The format is physicochemical.
The target of series [7] is Plasmepsin II (Plasmodium falciparum) (UniProt P46925). Put plainly: Inhibition of Plasmodium falciparum recombinant PLM2 expressed in Escherichia coli BL21(DE3) pLysS cells using Lys-GluPhe-Val-Phe-NPhe-Ala-Leu-Lys as substrate at 1 uM by spectrophotometry.
Series [8] is described as follows: Cytotoxicity against human HMEC1 cells assessed as growth inhibition after 72 hrs by MTT assay. To be noted: HMEC-1, 72 h. The format is cell-based. A general note: Tetrazolium dyes change colour on reduction, which living cells bring about.
Series [9] is described as follows: Therapeutic index, ratio of IC50 for HMEC1 cells to IC50 for Chloroquine-sensitive Plasmodium falciparum D10. To be noted: human; read-out: Ratio IC50. Format: cell-based.
Series [10] in a line: Therapeutic index, ratio of IC50 for HMEC1 cells to IC50 for Chloroquine-resistant Plasmodium falciparum W2. Format: cell-based. To be noted: human; read-out: Ratio IC50.

Sequence of Plasmepsin II (Plasmodium falciparum) (P46925 125-453 limits assumed): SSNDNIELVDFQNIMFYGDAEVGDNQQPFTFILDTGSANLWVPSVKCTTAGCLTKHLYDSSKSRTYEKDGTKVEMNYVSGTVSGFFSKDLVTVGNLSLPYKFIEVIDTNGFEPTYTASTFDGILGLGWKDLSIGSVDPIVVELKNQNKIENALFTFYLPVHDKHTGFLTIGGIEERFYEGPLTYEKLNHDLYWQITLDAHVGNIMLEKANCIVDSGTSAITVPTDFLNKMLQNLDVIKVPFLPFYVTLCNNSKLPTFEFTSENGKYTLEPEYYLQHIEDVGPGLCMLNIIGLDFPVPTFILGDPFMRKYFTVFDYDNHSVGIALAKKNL

Consider `CCCCNC(=O)[C@H](CC(C)C)NC(=O)[C@@H](NC(=O)c1ccc(Oc2ccc(C(=O)N[C@@H](CC(C)C)C(=O)NCCCN(CC)CC)cc2)cc1)[C@@H](C)CC`, for which the IC50 in [1] was 121 nM; in [2] it was 103 nM; in series [3], 16300 nM. Moreover, the selectivity ratio in series [4] and in series [5] was > 100 each time.

For the compound `CCN(CC)CCCC(C)Nc1ccnc2cc(Cl)ccc12` (stereo not drawn) [CHLOROQUINE], the IC50 in series [6] amounted to 1.36 equiv.

Regarding `CCN(CC)CCNC(=O)[C@H](CC(C)C)NC(=O)c1ccc(Oc2ccccc2)cc1`, the IC50 in series [1] and in series [2] was > 5 µg/mL throughout.

With `CCCCNC(=O)[C@H](CC(C)C)NC(=O)[C@@H](NC(=O)c1ccc(Oc2ccc(C(=O)N[C@@H](CC(C)C)C(=O)N[C@@H](C)C(=O)NCCCC(C)Nc3cc(OC)cc4cccnc34)cc2)cc1)[C@@H](C)CC` (stereo partly drawn), the inhibition entry in series [7] is “inactive”. The values for the IC50 in series [1], in [2] and in series [6] were 37 nM, 104 nM and > 8 equiv, respectively.

Consider `CCCCNC(=O)[C@H](CC(C)C)NC(=O)[C@@H](NC(=O)c1ccc(Oc2ccc(C(=O)N[C@@H](C)C(=O)NCCCNc3ccnc4cc(Cl)ccc34)cc2)cc1)[C@@H](C)CC`, for which the inhibition result in [7] was “inactive”. Further, the IC50 in series [1] was found to be 43 nM; in [2], 39 nM; in series [8], 17600 nM; in series [3], 18000 nM; in series [6], 0.79 equiv. Further, the selectivity ratio in series [9], in series [4], in series [10] and in series [5] was 450 each time.

`CCCCNC(=O)[C@H](CC(C)C)NC(=O)[C@@H](NC(=O)c1ccc(Oc2ccc(C(=O)N[C@H](C(=O)N[C@@H](CC(C)C)C(=O)NCCCC)[C@@H](C)CC)cc2)cc1)[C@@H](C)CC`: the IC50 stood at 1980 nM in series [1] and 1620 nM in series [2].

`CCCCNC(=O)[C@H](CC(C)C)NC(=O)c1ccc(Oc2ccc(C(=O)N[C@@H](CC(C)C)C(=O)NCCN(CC)CC)cc2)cc1`: the IC50 in series [1] worked out at 357 nM; in series [2] it was 314 nM; in series [3], 23000 nM.

For `COc1cc(NC(C)CCCN)c2ncccc2c1` (stereo not drawn) [PRIMAQUINE], the IC50 in [6] is > 10 equiv.

As for `CCCCNC(=O)[C@H](CC(C)C)NC(=O)[C@@H](NC(=O)c1ccc(Oc2ccc(C(=O)N[C@@H](CC(C)C)C(=O)N[C@@H](C)C(=O)NCCN(CC)CC)cc2)cc1)[C@@H](C)CC`, the IC50 in [1] was 345 nM; in [2], 143 nM.

Consider `CCCCNC(=O)[C@H](CC(C)C)NC(=O)[C@@H](NC(=O)c1ccc(Oc2ccc(C(=O)N[C@@H](CC(C)C)C(=O)N[C@@H](C)C(=O)NCCCNc3ccnc4ccccc34)cc2)cc1)[C@@H](C)CC`, for which the inhibition result in series [7] was “inactive”. For the same compound, the IC50 is 63 nM in [1] and 54 nM in [2].
